This test deals with T1, human mGluR5A (Homo sapiens, UniProt P41594).
T1 construct: expressed in transfected cells; host or cells: CHO (Chinese Hamster Ovary) cells, kept under Puromycin and Zeocin selection
Nature of the test: Fluorescent Ca2+ mobilization (FLIPR) assay, potentiation of a sub-threshold (EC20, 300 nM) glutamate response. The note with it: CHO cells expressing human mGluR5A, potentiation in the presence of 300 nM glutamate. The test is classed as cell-based. The source says:
The utility of the compounds in accordance with the present invention as positive allosteric modulators of metabotropic glutamate receptor activity, in particular mGluR5 activity, may be readily determined without undue experimentation by methodology well known in the art, including O'Brien et al., Molecular Pharmacology 2003, 64(3) 731-740. In particular, the compounds of the following examples had activity in reference assays by enhancing mGluR5 activity. […] Changes in intracellular Ca^2+ were measured with Fluo-4AM ester (Invitrogen/Molecular Probes), which was detected on a Fluorometric Imaging Plate Reader (FLIPR, Molecular Devices, Sunnyvale, Calif.). In a typical experiment the mGluR5 positive allosteric modulatory activity of the compounds of the present invention was determined in accordance with the following experimental method.
Chinese Hamster Ovary (CHO) cells expressing human mGluR5A were maintained in growth medium containing DMEM, 10% dialyzed Fetal Bovine Serum, 50 units/mL Penicillin, 50 ug/mL Streptomycin, 2 mM L-glutamine, 1×MEM non-essential amino acids, 1 mM sodium pyruvate, 25 mM HEPES, 55 uM 2-mercaptoethanol, 5 ug/mL Puromycin, and 250 ug/mL Zeocin at 37° C. and 5% CO2. The day before the experiment, the cells were washed and seeded in “plating media” containing only DMEM, 10% dialyzed Fetal Bovine Serum, 50 units/mL Penicillin, and 50 ug/mL Streptomycin at a density of 50,000 cells/well (100 uL/well) in black 384-well clear-bottom PDL-coated plates. The cells were grown overnight at 37° C. and 6% CO2. This overnight glutamine/glutamate starvation allowed for consistent expression of the mGluR5A receptor, and the ability to add a known amount of agonist (glutamate in most cases) on the day of the experiment.
The day of the experiment, the cells were washed with 37° C. Assay Buffer (Hanks Balanced Salt Solution with CaCl2 and MgCl2, 20 mM HEPES, 2.5 mM Probenecid, 0.1% BSA) with an automated plate washer (3×100 uL, aspiration 3 mm from bottom leaving ˜30 uL of buffer in each well). After washing, 30 uL of dye loading buffer (4 uM Fluo-4AM, 0.04% Pluronic acid, and 1% dialyzed FBS in assay buffer) were added to each well of the plates for 2 uM Fluo-4AM final concentration. The plates were incubated at 37° C. and 6% CO2 for 1 hour to allow for dye loading. After dye loading, the cells were washed again as above, and placed on the FLIPR. Assays were conducted with two possible scenarios: 1) To determine the potencies of the compounds, as either agonists of mGluR5 or potentiators of mGluR5 in the presence of a sub-threshold amount of glutamate, 10-point titrations of the compounds (1:3 dilution between each point, 30-0.0015 uM final concentrations) were added to the cells, followed by the addition of the EC20 of glutamate (300 nM) to the cells. 2) To determine the cooperativity of the compounds with the natural agonist (glutamate), single concentrations of the compounds were added to the cells, followed by the addition of a 10-point titration of glutamate (1:3 dilution between each point, 1000-0.05 uM final concentrations). […] For both scenarios above, operation of the FLIPR was the same. Baseline fluorescence was monitored for 10 seconds, followed by the addition of compounds diluted in Assay Buffer (1% DMSO concentration after this addition, 0.66% final DMSO concentration after agonist addition). After monitoring fluorescence for 5 minutes, during which time any intrinsic agonist activity of the compounds would have been detected, the agonist (glutamate) also diluted in assay buffer was then added to the cells. The response was then monitored for an additional 3 minutes. In scenario #1, the peak during the final 3 minutes was used for potentiator data, and the peak during the 5 minutes post compound addition was used for compound agonist data. […]
For orientation: Calcium flux is commonly read through the fluorescence of an indicator in the cells.

Setting [1] is: about/generally, read-out: EC50 for potentiating/enhancing the mGluR5 receptor in the FLIPR assay.
Where [2] appears, read: inflection points, read-out: Representative FLIPR EC50 Values.

Each structure is given as a SMILES string. Like-named read-outs stand apart in the source and are kept apart here.

T1 sequence (P41594 21-1180 isoform P41594-2 limits assumed): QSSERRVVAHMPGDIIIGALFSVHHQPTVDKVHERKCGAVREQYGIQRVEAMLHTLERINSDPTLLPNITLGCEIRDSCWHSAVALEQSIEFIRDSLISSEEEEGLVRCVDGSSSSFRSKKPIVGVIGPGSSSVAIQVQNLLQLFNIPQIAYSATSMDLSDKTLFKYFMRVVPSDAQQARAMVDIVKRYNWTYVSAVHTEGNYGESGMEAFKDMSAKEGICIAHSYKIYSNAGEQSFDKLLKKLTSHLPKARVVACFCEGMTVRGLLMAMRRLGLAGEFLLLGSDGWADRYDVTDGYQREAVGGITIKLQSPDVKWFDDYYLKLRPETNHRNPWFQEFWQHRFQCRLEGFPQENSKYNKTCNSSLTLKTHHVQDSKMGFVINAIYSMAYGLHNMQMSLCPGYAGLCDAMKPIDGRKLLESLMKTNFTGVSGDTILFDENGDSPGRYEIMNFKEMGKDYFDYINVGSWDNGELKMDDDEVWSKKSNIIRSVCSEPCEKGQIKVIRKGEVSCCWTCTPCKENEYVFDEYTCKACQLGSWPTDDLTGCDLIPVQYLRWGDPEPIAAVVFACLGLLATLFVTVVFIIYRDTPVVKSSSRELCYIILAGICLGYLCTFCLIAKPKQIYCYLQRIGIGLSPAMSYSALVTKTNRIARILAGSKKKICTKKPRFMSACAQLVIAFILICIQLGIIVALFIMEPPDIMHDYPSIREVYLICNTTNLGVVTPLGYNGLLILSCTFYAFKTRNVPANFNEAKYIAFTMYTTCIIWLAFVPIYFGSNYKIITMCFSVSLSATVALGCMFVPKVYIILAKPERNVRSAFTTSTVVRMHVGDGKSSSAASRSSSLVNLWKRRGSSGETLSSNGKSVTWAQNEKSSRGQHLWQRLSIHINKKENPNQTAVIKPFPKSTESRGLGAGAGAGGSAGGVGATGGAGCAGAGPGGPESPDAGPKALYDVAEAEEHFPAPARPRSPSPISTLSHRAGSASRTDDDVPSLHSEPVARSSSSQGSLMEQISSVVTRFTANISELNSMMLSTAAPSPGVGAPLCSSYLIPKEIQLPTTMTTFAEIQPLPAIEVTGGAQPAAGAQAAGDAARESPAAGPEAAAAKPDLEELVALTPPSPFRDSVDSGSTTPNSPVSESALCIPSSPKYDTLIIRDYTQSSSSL

With `Cc1c[nH]c(-c2noc(C3CCC4C=Cc5ccccc5C(=O)N4C3)n2)c1` (racemic) [Example 7-7, (±) cis-(Z)-3-[3-(4-methyl-1H-pyrrol-2-yl)-1,2,4-oxadiazol-5-yl]-1,3,4,12a-tetrahydropyrido[1,2-b][2]benzazepin-6(2H)-one], the EC50 is, setting by setting: under setting [1], less than 1000 nM; under setting [2], 31 nM.

Regarding `N#Cc1ccc2c(c1)CCC1CCC(c3nc(-c4cc(Cl)c[nH]4)no3)CN1C2=O` (racemic) [Example 18-1, (±) cis-9-cyano-3-[3-(4-chloro1H-pyrrol-2-yl)-1,2,4-oxadiazol-5-yl]-1,3,4,11,12,12a-hexahydropyrido[1,2-b][2]benzazepin-6(2H)-one], the EC50 under setting [1] was less than 1000 nM and the EC50 under setting [2] came to 50 nM.

With `O=C1c2ccc(F)cc2C(F)(F)C[C@@H]2CC[C@H](c3nc(-c4ccc(F)cn4)no3)CN12` (racemic) [Example 20-3, (±) cis-9,11,11-trifluoro-3-[3-(5-fluoropuridin-2-yl)-1,2-4-oxadiazol-5-yl]-1,3,4,11,12,12a-hexahydropyrido[1,2-b][2]benzazepin-6(2H)-one], under setting [1], the EC50 is less than 1000 nM. For the compound `O=C1c2cnc(F)cc2CC[C@@H]2CC[C@H](c3noc(-c4ccc(F)cn4)n3)CN12` (single isomer, unassigned) [Example 24-6], under setting [1], the EC50 is less than 1000 nM. `Cc1c[nH]c(-c2noc([C@H]3CC[C@H]4CCc5ccccc5C(=O)N4C3)n2)c1` [Example 1-5, cis-(3S,12aS)-3-(3-(4-Methyl-1H-pyrrol-2-yl)-1,2,4-oxadiazol-5-yl)-1,3,4,11,12,12a-hexahydrobenzo[e]pyrido[1,2-a]azepin-6(2H)-one]: the EC50 is, setting by setting: under setting [1], less than 1000 nM; under setting [2], 16 nM. With `O=C1c2ccc(F)cc2CC[C@@H]2CC[C@H](c3nc(-c4cc(Cl)c[nH]4)no3)CN12` [Example 3-1, (3S,12aS)-9-Fluoro-3-[3-(4-chloro1H-pyrrol-2-yl)-1,2,4-oxadiazol-5-yl]-1,3,4,11,12,12a-hexahydropyrido[1,2-b][2]benzazepin-6(2H)-one], the EC50 was less than 1000 nM under setting [1] and 8 nM under setting [2]. As to `O=C1c2ccccc2OC[C@@H]2CC[C@H](c3nc(-c4cc(Cl)c[nH]4)no3)CN12` [Example 11-8, (6aS,9S)-9-[3-(4-chloro-1H-pyrrol-2-yl)-1,2,4-oxadiazol-5-yl]-6,6a,7,8,9,10-hexahydro-12H-pyrido[2,1-c][1,4]benzoxazepin-12-one], the EC50 was less than 1000 nM under setting [1] and 71 nM under setting [2]. For `COc1ccc2c(n1)CC[C@@H]1CC[C@H](c3nc(-c4cc(Cl)c[nH]4)no3)CN1C2=O` [Example 13-2, (8S,10aS)-8-[3-(4-chloro-1H-pyrrol-2-yl)-1,2,4-oxadiazol-5-yl]-2-methoxy-8,9,10,10a,11,12-hexahydrodipyrido[1,2-a:2′,3′-e]azepin-5(7H)-one], the EC50 under setting [1] was less than 1000 nM.

The record behind these values is patent US20130210804A1, “TRICYCLIC MGLUR5 RECEPTOR MODULATORS” (priority 2010, published 2013).
